Test results taken from article PMC6273578, “Design, Synthesis and Biological Evaluation of Benzohydrazide Derivatives Containing Dihydropyrazoles as Potential EGFR Kinase Inhibitors” (Molecules, 2016).
pIC50: −log10 of the molar value.

Legend:
[1] = tested on: HeLa cells; assay: MTT antiproliferative assay, HeLa; type: cell-based, human; details: Homo sapiens, read-out: In vitro antiproliferative activity IC50, HeLa
Method: (§1) IC50 values of the test compounds against A549, MCF-7, Hela and HepG2 cells were obtained from State Key Laboratory of Pharmaceutical Biotechnology, Nanjing University, and were determined by a standard (MTT)-based colorimetric assay (Beyotime Inst. Biotech., Nanjing, China). Tumor cell lines were grown to mid-log phase and then diluted to […] making sure they were seeded in 96-well plates (Philas, Nanjing, China) at a density of 5 × 10^3–1 × 10^4 cells per well. The outer wells containing 1 × PBS solution of the plate are not used for the assay to avoid the possibility of edge effects. The plate was incubated at 37 °C in a 5% CO2 incubator in DMEM containing 10% fetal bovine serum (FBS, Gibco, Waltham, MA, USA) for 24 h. Then, we added a 100-μL series concentration of drug-containing medium into the wells to maintain the final concentration of drug as 100, 10, 1 and 0.1 μmol/L. After 12 h, cell survival was determined by the addition of a MTT (3-(4,5-dimethylthiazol-2-yl)-2,5-diphenyl trtrazolium bromide) solution (10 μL of 5 mg/mL MTT in 1 × PBS). We waited for 4 h proliferation, discarded the medium and quickly added 150 μL DMSO per well, shaking the plates well for 10 min to ensure complete dissolution. Optical absorbance was measured at 570 nm on a microplate reader (Bio-Rad, Hercules, CA, USA). Survival ratios are expressed in percentages with respect to untreated cells. The experiments were replicated at least three times to verify the methodology reproducibility when using the above-mentioned conditions.

[2] = tested on: HeLa cells; assay: Cell apoptosis assay by flow cytometry (Annexin V-FITC/PI); type: cell-based, human; details: 24 h
Method: To verify whether the inhibition of cell growth of HeLa cell lines was related to cell apoptosis, we decided to use flow cytometry with an Annexin V-FITC/PI Apoptosis Detection Kit to […] the HeLa cell apoptosis with compound H20.
For Annexin V/PI assays, HeLa cells were stained with Annexin VFITC and PI and then monitored for apoptosis by flow cytometry. Briefly, 5 × 10^3 cells were seeded in 6-well plates for 24 h and then were treated with H20 (2.0, 4.0, 6.0, 8.0 μM) for 24 h. Then, cells were collected and washed twice with PBS and stained with 5 μL Annexin V-FITC and 5 μL PI (5 μg/mL) in 1× binding buffer (10 mM HEPES, pH 7.4, 140 mM […], 2.5 mM CaCl2) for 15 min at room temperature in the dark. Apoptotic cells were quantified using a BD Accuri C6 Flow Cytometer (Becton, Dickinson and Company, Clifton, NJ, USA). Statistical analysis was done using Flowjo 7.6.1 software. Both early apoptotic (AnnexinV-positive, PI-negative) and late apoptotic (double positive of Annexin V and PI) cells were detected.

[3] = Cytotoxicity test (MTT) on 293T cells; details: human, 293T human kidney epithelial cells
Method: The cytotoxic activity in vitro was measured by the colorimetric MTT assay. […] For the cytotoxicity assay, 20 μL of MTT (5 mg/mL) was added per well 4 h before the end of the incubation. After removing the supernatant, 200 μL DMSO was added to dissolve the formazan crystals. The absorbance at λ 570 nm was read on an LX300 Epson Diagnostic microplate reader, untreated cells were used as negative controls.

[4] = tested on: HepG2 cells; assay: MTT antiproliferative assay, HepG2; type: cell-based, human; details: Homo sapiens, read-out: In vitro antiproliferative activity IC50, HepG2
Method: as §1

[5] = tested on: A549 cells; assay: MTT antiproliferative assay, A549; type: cell-based, human; details: Homo sapiens, read-out: In vitro antiproliferative activity IC50, A549
Method: as §1

[6] = target: epidermal growth factor receptor (EGFR) (Homo sapiens, UniProt P00533); assay: EGFR kinase inhibition, solid-phase ELISA assay
Method: All these newly synthesized compounds were evaluated for their inhibitory activities against EGFR kinases using a solid-phase ELISA assay.
EGFR tyrosine kinase activity was determined by an enzyme linked-immunosorbent assay (ELISA) in 96-well plates precoated in a 10 mL reaction volume including 4 mL diluted test compounds, 4 mL substrate and 2 mL ATP. […] The plates were then aspirated and washed twice with 200 mL 0.9% (w/v) NaCl, and incorporation of Pi was determined with an LX300 Epson Diagnostic microplate reader. […] The experiments were replicated at least three times to verify the methodology reproducibility when using the above-mentioned conditions.

[7] = tested on: MCF-7 cells; assay: MTT antiproliferative assay, MCF-7; type: cell-based, human; details: Homo sapiens, MCF7, read-out: In vitro antiproliferative activity IC50, MCF-7
Method: as §1

Chain of epidermal growth factor receptor (EGFR) (P00533 25-1210): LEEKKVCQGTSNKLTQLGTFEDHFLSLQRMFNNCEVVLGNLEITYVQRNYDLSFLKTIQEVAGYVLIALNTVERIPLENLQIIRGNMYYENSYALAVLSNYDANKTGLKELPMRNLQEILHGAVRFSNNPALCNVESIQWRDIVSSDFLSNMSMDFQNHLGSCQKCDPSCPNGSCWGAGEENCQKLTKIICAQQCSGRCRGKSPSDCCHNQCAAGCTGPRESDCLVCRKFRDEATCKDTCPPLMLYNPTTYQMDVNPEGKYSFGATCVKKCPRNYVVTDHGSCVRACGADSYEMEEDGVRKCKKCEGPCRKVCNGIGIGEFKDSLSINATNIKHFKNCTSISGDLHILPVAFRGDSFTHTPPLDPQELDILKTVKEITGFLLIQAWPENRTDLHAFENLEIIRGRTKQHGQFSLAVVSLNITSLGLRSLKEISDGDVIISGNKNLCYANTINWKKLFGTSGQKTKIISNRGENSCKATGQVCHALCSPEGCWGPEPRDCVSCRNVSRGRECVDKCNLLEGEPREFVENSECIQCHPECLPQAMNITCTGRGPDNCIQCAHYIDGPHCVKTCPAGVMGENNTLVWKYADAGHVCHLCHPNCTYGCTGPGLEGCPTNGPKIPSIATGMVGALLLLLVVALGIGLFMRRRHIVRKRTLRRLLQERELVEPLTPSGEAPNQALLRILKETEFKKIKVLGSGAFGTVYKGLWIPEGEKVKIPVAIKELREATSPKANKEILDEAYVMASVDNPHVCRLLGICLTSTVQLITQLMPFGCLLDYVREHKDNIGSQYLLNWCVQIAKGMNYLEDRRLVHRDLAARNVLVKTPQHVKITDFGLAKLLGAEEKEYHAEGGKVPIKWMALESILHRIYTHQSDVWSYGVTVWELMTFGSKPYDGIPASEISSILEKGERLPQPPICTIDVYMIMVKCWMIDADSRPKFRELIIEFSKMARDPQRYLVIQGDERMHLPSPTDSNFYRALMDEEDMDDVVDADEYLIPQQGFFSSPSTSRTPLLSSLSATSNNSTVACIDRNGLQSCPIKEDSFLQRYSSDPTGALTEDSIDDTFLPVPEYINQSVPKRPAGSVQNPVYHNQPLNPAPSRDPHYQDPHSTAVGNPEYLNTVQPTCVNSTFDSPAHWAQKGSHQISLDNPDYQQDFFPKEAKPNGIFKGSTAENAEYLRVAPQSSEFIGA

- pIC50 [1]: 6.82
- pIC50 [4]: 6.68
- pIC50 [5]: 6.34
- pIC50 [6]: 7.10
- pIC50 [7]: 6.54
- melting point: 241 to 243 °C
SMILES: COc1ccc(/C=N/NC(=O)c2ccc(N3N=C(c4ccc(C)cc4)CC3c3ccc4ccccc4c3)cc2)cc1 (centres unmarked) [Compound H20, (E)-N′-(4-Methoxybenzylidene)-4-(5-(naphthalen-2-yl)-3-(p-tolyl)-4,5-dihydro-1H-pyrazol-1-yl)benzo-hydrazide]
- percentage of cell apoptosis ([2]; 2.0 μM): 28.7%
- percentage of cell apoptosis ([2]; 4.0 μM): 34.9%
- percentage of cell apoptosis ([2]; 6.0 μM): 47.2%
- percentage of cell apoptosis ([2]; 8.0 μM): 58.12%
- CC50 at 24 h [3]: 89900 nM
